From US20260000698A1 (priority 2022, published 2026)

Columns and labels:
[1] = Parallel artificial membrane permeability assay (PAMPA); format: in vitro ADME
Description: Parallel artificial membrane permeability assay (PAMPA).^5 The membrane permeability of selected compounds was evaluated using the Corning® BioCoat™ Pre-coated PAMPA Plate System (Corning 353015; Glendale, AZ, USA). The pre-coated plate assembly, which was stored at −20° C., was taken to thaw for 30 min at room temperature. The permeability assay was carried out in accordance with the manufacturer's protocol. Briefly, the 96-well filter plate, pre-coated with lipids, was used as the permeation acceptor and a matching 96 well receiver plate was used as the permeation donor. Compound solutions were prepared by diluting the 10 mmol/L DMSO stock solutions with 10% methanol in DPBS to a final concentration of […]. The compound solutions were added to the wells (300 μL/well) of the receiver plate and DPBS with 10% methanol was added to the wells (200 μL/well) of the pre-coated filter plate. The filter plate was then coupled with the receiver plate and the plate assembly was incubated at 25° C. without agitation for 5 h. At the end of the incubation, the plate was separated and the final concentrations of compounds in both donor wells and acceptor wells were analyzed using LC-MS/MS. Permeability of a compound was calculated using the Eq. (1):
where A=filter area (0.3 cm^2), VD=donor well volume (0.3 mL), VA=acceptor well volume (0.2 mL), t=incubation time (seconds), CA(t)=compound concentration in acceptor well at time t, CD(t)=compound concentration in donor well at time t, and Ceq was calculated using the Eq. (2): […]
A cutoff criterion of Pe value at […] was used to classify the compounds into high and low permeability according to the literature report of this PAMPA plate system^1.

DOT1L = molecular target: T1, DOT1L (Homo sapiens, UniProt Q8TEK3); experiment: Human MTase screening: DOT1L; format: biochemical
T1 construct: purchased BPS Bioscience
Description: (§1) Assay conditions. The human methyltransferase inhibition assays were performed at BPS Bioscience (San Diego, CA, USA). All of the enzymatic reactions were conducted in duplicate at room temperature for 60-960 min in a 50 μL mixture containing proper methyltransferase assay buffer, S-adenosylmethionine (SAM), enzyme, and the test compound. These 50 μL reactions were carried out in wells of a substrate pre-coated plate. First, enzyme and inhibitor were added to assay wells and preincubated for 30 min at room temperature, then SAM was added to start the reaction. Final DMSO concentration was 1% in all reactions.
(§2) After enzymatic reactions, the reaction mixtures were discarded and each of the wells was washed three times with TBST buffer, and slowly shaken with Blocking Buffer for 10 min. Wells were emptied, and 100 μL of diluted primary antibody was added. The plate was then slowly shaken for 60 minutes at room temperature. […] Immediately, the luminescence of the samples was measured in a BioTek Synergy™ 2 (Winooski, VT, USA) microplate reader using Gen5 software.
(§3) Data analysis. […] The luminescence data/alpha counts were analyzed and compared. […] The percent activity in the presence of each compound was calculated according to the following equation: % activity=(C−C0)/(Ce−C0), where C=the luminescence/alpha counts in the presence of the compound.

MLL1 Complex = molecular target: T2, MLL1 Complex (Homo sapiens, UniProt Q03164); experiment: Human MTase screening: MLL1 Complex; format: biochemical
T2 construct: purchased BPS Bioscience
Description: as §1, §2, §3

PRMT1 = molecular target: T3, PRMT1 (Homo sapiens, UniProt Q99873); experiment: Human MTase screening: PRMT1; format: biochemical
T3 construct: purchased BPS Bioscience
Description: as §1, §2, §3

PRMT3 = molecular target: T4, PRMT3 (Homo sapiens, UniProt O60678); experiment: Human MTase screening: PRMT3; format: biochemical
T4 construct: purchased BPS Bioscience
Description: as §1, §2, §3

DNMT1 = molecular target: T5, DNMT1 (Homo sapiens, UniProt P26358); experiment: Human MTase screening: DNMT1; format: biochemical
T5 construct: purchased BPS Bioscience
Description: as §1, §2, §3

DNMT3A/DNMT3L = molecular target: T6, DNMT3A/DNMT3L (Homo sapiens, UniProt Q9Y6K1); experiment: Human MTase screening: DNMT3A/DNMT3L; format: biochemical
T6 construct: purchased BPS Bioscience
Description: as §1, §2, §3

EZH1 = molecular target: T7, EZH1 (Homo sapiens, UniProt Q92800); experiment: Human MTase screening: EZH1; format: biochemical
T7 construct: purchased BPS Bioscience
Description: as §1, §2, §3

panel of 10 human MTases = experiment: Human MTase screening, whole panel; format: biochemical; conditions: 10 μM
Description: To evaluate selectivity over human MTases, compound 3 was screened against a panel of 10 human MTases including histone lysine, protein arginine, DNA and RNA MTases. […] These preliminary results bolstered our premise that it was feasible to design selective Nsp14 MTase because of its unique structure in contrast to the canonical Rossmann fold.
as §1, with “First, enzyme and inhibitor were added to assay wells and preincubated for 30 min at room temperature, then SAM was added to start the reaction. Final DMSO concentration was 1% in all reactions.” left out
as §2, with “min.” for “min. Wells were emptied, and 100 μL of diluted primary antibody was added. The plate was then slowly shaken for 60 minutes at room temperature.”
as §3

T7 sequence (Q92800 whole entry): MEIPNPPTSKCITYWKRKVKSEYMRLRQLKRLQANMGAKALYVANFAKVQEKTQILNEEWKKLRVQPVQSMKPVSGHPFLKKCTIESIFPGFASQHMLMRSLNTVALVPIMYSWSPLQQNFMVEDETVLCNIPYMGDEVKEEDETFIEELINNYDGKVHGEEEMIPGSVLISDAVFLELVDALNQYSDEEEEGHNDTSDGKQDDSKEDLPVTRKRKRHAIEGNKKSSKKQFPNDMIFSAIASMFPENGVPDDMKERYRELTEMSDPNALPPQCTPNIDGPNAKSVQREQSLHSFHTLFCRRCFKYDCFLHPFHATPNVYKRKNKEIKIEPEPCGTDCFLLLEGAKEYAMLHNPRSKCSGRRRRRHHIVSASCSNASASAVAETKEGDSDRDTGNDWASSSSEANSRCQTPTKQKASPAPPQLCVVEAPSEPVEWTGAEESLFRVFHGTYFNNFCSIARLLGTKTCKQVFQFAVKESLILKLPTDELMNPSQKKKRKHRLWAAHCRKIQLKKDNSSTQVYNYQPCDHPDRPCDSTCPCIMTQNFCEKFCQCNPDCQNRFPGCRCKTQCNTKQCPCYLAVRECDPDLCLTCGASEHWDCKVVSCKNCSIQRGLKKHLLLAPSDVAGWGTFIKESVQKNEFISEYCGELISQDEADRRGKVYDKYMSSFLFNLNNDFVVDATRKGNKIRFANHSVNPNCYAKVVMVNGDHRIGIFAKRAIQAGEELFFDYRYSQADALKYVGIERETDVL
T7 sequence (O75530 whole entry partner): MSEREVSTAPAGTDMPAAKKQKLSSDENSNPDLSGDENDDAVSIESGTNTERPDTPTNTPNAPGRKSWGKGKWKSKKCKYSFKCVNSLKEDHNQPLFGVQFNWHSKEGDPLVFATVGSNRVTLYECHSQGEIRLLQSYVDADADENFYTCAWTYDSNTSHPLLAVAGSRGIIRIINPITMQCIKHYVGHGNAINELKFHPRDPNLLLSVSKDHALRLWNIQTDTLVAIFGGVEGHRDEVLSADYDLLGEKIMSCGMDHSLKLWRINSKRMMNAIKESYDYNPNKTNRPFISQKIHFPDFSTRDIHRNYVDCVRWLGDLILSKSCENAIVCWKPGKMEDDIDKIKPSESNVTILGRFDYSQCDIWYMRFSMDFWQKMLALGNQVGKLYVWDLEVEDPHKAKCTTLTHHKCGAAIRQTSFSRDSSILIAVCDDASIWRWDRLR
T7 sequence (Q15022 whole entry partner): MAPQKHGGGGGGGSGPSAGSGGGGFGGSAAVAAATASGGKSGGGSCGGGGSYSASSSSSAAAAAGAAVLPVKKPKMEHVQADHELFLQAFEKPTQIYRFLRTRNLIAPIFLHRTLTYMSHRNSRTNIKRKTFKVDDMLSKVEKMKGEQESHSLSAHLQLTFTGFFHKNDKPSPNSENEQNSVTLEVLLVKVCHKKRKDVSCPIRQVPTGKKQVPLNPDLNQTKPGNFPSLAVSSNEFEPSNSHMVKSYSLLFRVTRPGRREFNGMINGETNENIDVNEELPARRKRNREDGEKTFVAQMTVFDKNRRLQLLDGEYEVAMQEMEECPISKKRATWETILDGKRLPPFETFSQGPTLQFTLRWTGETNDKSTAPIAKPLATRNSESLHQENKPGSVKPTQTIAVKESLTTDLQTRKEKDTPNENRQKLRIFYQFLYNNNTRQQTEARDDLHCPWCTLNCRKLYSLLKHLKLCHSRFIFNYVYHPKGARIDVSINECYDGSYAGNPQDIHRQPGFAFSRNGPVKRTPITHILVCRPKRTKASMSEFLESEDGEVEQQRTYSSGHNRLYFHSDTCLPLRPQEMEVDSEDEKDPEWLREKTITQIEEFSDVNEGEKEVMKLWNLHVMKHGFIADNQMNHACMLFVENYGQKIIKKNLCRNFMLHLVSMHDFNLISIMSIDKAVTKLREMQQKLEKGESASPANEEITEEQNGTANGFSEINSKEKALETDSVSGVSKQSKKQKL
T7 sequence (Q09028 whole entry partner): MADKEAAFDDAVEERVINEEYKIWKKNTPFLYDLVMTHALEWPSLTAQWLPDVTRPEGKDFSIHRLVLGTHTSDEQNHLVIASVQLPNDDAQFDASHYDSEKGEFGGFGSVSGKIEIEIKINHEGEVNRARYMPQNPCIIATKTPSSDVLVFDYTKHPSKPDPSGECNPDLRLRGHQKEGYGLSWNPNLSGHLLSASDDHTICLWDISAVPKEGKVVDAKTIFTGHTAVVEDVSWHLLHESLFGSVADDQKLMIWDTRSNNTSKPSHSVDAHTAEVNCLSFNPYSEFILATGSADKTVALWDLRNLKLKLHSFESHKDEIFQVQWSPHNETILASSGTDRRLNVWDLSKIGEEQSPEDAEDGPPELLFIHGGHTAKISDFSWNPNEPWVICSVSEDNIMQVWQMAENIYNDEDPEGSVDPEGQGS
T7 sequence (Q6ZN18 whole entry partner): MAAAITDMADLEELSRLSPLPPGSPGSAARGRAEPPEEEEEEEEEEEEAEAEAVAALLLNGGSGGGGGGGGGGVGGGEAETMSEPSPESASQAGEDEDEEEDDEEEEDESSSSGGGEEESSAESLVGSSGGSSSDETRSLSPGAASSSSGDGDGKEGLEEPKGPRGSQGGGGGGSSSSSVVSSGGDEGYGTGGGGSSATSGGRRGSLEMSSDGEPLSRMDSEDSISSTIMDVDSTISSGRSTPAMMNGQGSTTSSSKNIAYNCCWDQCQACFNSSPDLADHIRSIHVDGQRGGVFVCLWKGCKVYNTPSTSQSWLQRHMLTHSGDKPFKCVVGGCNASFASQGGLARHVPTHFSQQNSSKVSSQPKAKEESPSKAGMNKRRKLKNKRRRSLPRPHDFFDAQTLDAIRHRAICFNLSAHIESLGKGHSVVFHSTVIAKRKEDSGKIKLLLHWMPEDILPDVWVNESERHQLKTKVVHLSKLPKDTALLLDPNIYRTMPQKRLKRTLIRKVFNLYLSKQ
T4 sequence (O60678 whole entry): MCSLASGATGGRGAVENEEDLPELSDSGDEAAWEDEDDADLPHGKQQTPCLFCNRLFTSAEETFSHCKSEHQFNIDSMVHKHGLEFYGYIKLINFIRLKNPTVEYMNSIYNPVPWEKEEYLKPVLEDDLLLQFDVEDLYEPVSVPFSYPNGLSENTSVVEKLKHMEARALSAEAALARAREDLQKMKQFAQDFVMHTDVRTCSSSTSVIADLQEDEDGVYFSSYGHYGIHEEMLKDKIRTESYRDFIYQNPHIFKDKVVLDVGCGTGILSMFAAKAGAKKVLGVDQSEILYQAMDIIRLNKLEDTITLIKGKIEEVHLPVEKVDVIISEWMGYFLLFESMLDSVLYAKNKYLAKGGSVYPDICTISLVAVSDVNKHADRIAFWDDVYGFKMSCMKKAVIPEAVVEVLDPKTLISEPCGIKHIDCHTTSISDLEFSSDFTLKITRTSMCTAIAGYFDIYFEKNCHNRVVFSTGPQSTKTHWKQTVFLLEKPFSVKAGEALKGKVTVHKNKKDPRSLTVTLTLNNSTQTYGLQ
T5 sequence (P26358 whole entry): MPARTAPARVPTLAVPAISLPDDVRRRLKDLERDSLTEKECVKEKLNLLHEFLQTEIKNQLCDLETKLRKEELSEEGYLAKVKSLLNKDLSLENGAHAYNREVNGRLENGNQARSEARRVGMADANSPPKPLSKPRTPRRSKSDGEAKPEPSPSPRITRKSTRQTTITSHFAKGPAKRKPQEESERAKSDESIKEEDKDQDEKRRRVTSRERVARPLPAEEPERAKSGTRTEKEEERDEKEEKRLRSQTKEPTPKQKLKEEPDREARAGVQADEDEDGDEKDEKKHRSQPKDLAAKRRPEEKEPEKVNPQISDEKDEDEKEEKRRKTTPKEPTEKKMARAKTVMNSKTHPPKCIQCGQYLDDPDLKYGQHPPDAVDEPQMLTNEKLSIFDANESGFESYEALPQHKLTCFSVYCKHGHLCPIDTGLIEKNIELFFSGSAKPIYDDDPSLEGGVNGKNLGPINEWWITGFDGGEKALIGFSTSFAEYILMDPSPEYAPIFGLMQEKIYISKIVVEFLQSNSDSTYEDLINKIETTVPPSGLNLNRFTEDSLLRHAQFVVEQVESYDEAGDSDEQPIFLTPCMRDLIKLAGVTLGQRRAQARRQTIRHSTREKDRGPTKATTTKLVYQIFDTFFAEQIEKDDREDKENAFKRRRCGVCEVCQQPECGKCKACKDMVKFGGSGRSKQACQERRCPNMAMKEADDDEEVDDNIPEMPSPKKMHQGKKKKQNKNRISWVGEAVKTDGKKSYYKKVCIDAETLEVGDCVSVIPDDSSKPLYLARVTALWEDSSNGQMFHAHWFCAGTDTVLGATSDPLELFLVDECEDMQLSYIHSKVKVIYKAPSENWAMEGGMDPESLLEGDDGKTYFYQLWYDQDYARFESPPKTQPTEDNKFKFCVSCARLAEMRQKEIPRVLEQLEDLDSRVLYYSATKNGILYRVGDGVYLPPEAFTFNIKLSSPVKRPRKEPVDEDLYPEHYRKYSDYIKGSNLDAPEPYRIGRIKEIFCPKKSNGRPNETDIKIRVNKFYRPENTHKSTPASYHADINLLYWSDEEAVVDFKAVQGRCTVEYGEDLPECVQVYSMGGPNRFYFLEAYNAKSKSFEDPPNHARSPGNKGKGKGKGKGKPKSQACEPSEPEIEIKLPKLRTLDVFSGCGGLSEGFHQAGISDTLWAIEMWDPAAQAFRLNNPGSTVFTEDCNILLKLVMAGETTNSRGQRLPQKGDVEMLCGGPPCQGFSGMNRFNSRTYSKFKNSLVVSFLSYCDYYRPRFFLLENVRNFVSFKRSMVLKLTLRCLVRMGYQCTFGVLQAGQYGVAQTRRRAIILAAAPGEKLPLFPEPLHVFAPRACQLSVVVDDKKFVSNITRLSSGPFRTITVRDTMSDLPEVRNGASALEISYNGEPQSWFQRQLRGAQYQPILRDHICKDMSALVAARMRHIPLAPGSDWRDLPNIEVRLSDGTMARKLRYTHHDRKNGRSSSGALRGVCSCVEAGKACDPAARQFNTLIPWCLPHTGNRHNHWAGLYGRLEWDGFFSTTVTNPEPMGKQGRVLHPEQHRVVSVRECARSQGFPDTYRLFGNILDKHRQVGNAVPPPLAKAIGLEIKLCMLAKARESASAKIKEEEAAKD

## Nc1ncnc2c1ncn2[C@@H]1O[C@H](CNS(=O)(=O)c2ccc3ccccc3c2)[C@@H](O)[C@H]1O [Compound 3, N-(((2R,3S,4R,5R)-5-(6-Amino-9H-purin-9-yl)-3,4-dihydroxytetrahydrofuran-2-yl)methyl)naphthalene-2-sulfonamide]
[1]; PAMPA
  passive diffusion rate in PAMPA: equally low
[1]; n = 6, mean±SD, 25° C., 5 h
  PAMPA Permeability Pe: 0.2 ± 0.1 10^−6 cm/s
DOT1L
  inhibition at 10 µM: 10%
MLL1 Complex
  inhibition at 10 µM: 1%
PRMT1
  inhibition at 10 µM: 5%
PRMT3
  inhibition at 10 µM: 0%
DNMT1
  inhibition at 10 µM: 5%
DNMT3A/DNMT3L
  inhibition at 10 µM: 4%
EZH1
  inhibition at 10 µM: 2%
Panel of 10 human MTases
  inhibition of a panel of 10 human MTases: minimal inhibition
other
  stability in human liver S9 fractions: resistant to phase I and II transformations
